Measured values as given in ChEMBL document CHEMBL4311978, “Transferrin conjugates of antitubercular drug isoniazid: Synthesis and in vitro efficacy” (Eur J Med Chem, 2019).
Converted amounts (≈) assume the structure as drawn. The source made the active and inactive calls. The rule behind the calls is not given here.

How the values were obtained:
[1] = system: Mycobacterium tuberculosis; assay: Antitubercular activity against Mycobacterium tuberculosis H37Rv infected in human THP1 cells assessed as reduction in CFU incubated for 48 hrs; assay type: functional, organism-based
THP-1 = assay: Cytotoxicity against human THP1 cells assessed as reduction in cell viability incubated for 48 hrs by MTT assay; assay type: cell-based; details: THP-1, 48 h
[2] = system: Mycobacterium tuberculosis; assay: Antitubercular activity against Mycobacterium tuberculosis H37Rv assessed as reduction in bacterial cell viability incubated for 5 days by microplate alamar blue assay; assay type: functional; details: 120 h

NNC(=O)c1ccncc1 [ISONIAZID]
Activity [1]: Active | IC50 (THP-1): > 25 µg/mL | MIC90 [2]: 0.25 µg/mL (≈ 1.82 µM)
